Measured values reported in ChEMBL document CHEMBL5032513, “Propionamide Derivatives as Dual μ-Opioid Receptor Agonists and σ1 Receptor Antagonists for the Treatment of Pain” (J Med Chem, 2021).

Assays:
[1] = Apparent permeability across apical to basolateral side in human Caco-2 cells; type: ADME, cell-based
[2] = AUC in Wistar rat brain at 40 mg/kg, ip; type: ADME, organism-based; set-up: dose 40 mg/kg
[3] = Cmax in CD-1 mouse at 10 mg/kg, po by HPLC-MS/MS analysis; type: ADME, organism-based; set-up: route oral, dose 10 mg/kg; conditions: in vivo
[4] = Oral bioavailability in CD-1 mouse plasma at 10 mg/kg by HPLC-MS/MS analysis; type: ADME, organism-based
[5] = AUC(0 to t) in CD-1 mouse at 10 mg/kg, po by HPLC-MS/MS analysis; type: ADME, organism-based; set-up: dose 10 mg/kg; conditions: in vivo
[6] = Lipophilicity, logP of compound; type: physicochemical; conditions: octanol/water
[7] = Half life in CD-1 mouse at 40 mg/kg, ip by HPLC-MS/MS analysis; type: ADME, organism-based; conditions: in vivo
[8] = Tmax in CD-1 mouse at 40 mg/kg, ip by HPLC-MS/MS analysis; type: ADME, organism-based; conditions: in vivo
[9] = Dissociation constant, pKa of compound; type: physicochemical
[10] = Cmax in CD-1 mouse at 40 mg/kg, ip by HPLC-MS/MS analysis; type: ADME, organism-based; set-up: route intraperitoneal, dose 40 mg/kg; conditions: in vivo
[11] = Distribution coefficient, logD of compound; type: physicochemical; conditions: octanol/water
[12] = Bioavailability in CD-1 mouse plasma at 40 mg/kg, ip by HPLC-MS/MS analysis; type: ADME, organism-based
[13] = Half life in CD-1 mouse at 1 mg/kg, iv by HPLC-MS/MS analysis; type: ADME, organism-based; conditions: in vivo
[14] = AUC in CD-1 mouse at 40 mg/kg, ip by HPLC-MS/MS analysis; type: ADME, organism-based; set-up: dose 40 mg/kg; conditions: in vivo
[15] = AUC(0 to t) in CD-1 mouse at 40 mg/kg, ip by HPLC-MS/MS analysis; type: ADME, organism-based; set-up: dose 40 mg/kg; conditions: in vivo
[16] = AUC in CD-1 mouse at 1 mg/kg, iv by HPLC-MS/MS analysis; type: ADME, organism-based; set-up: dose 1 mg/kg; conditions: in vivo
[17] = Tmax in CD-1 mouse at 10 mg/kg, po by HPLC-MS/MS analysis; type: ADME, organism-based; conditions: in vivo
[18] = Volume of distribution at steady state in CD-1 mouse at 1 mg/kg, iv by HPLC-MS/MS analysis; type: ADME, organism-based; conditions: in vivo, read-out: Vdss
[19] = AUC in Wistar rat plasma at 40 mg/kg, ip; type: ADME, organism-based; set-up: dose 40 mg/kg
[20] = Clearance in CD-1 mouse at 1 mg/kg, iv by HPLC-MS/MS analysis; type: ADME, organism-based; conditions: in vivo
[21] = AUC(0 to t) in CD-1 mouse at 1 mg/kg, iv by HPLC-MS/MS analysis; type: ADME, organism-based; set-up: dose 1 mg/kg; conditions: in vivo

Compound: CCC(=O)N(CC1(N2CCN(CC(C)C)CC2)CCOCC1)c1cccc(C(F)(F)F)n1
- Papp A→B [1]: 16.9 ×10⁻⁶ cm/s
- AUC [2]: 2430 ng·h/mL
- Cmax [3]: 130 ng/mL
- bioavailability [4]: 13%
- AUC(0-t) [5]: 122 ng·h/mL
- logP [6]: 3.7
- half-life [7]: 36 min
- Tmax [8]: 4.8 min
- pKa [9]: 8.9
- Cmax [10]: 11300 ng/mL
- logD [11]: 2.2
- bioavailability [12]: > 100%
- half-life [13]: 24 min
- AUC [14]: 5960 ng·h/mL
- AUC(0-t) [15]: 5950 ng·h/mL
- AUC [16]: 93 ng·h/mL
- Tmax [17]: 30 min
- Vd [18]: 2.9 L/kg
- AUC [19]: 2810 ng·h/mL
- clearance [20]: 180 mL/min/kg
- AUC(0-t) [21]: 92 ng·h/mL
